Results from US20110158980A1, “METHODS TO TREAT AND SCREEN FOR AGENTS TO TREAT OBESITY” (TRUSTEES OF TUFTS COLLEGE, priority 2008, published 2011).

Tested on: 3T3-L1 adipocytes
Experiment: Metabolic flux analysis (stoichiometric model) of adipocyte intermediary metabolism
Assay type: cell-based
Protocol: 3T3-L1 preadipocytes were plated onto 24-well plates and expanded in preadipocyte growth medium consisting of DMEM supplemented with calf serum (10% v/v), penicillin and streptomycin. Medium was replenished every other day. Two days post-confluence, the cells were induced to differentiate using an adipogenic cocktail (1 μg/ml insulin, 0.5 mM isobutylmethylxanthine, and 1 μM dexamethasone) added to a basal medium (DMEM with 10% fetal bovine serum and penicillin/streptomycin). After 48 hrs, the first medium was replaced with a second induction medium consisting of the basal adipocyte medium supplemented with only insulin. […] This basal medium was replenished every other day during the remainder of the culture experiments.
A stoichiometric model of adipocyte central carbon metabolism was constructed as described previously (Si Y, Yoon J, Lee K. American journal of physiology 2007; 292:E1637-46). The model consisted of the major pathways of central carbon metabolism (Table 1). Intracellular fluxes were estimated by solving a constrained non-linear optimization problem with stoichiometric and thermodynamic constraints (Nolan R P, Fenley A P, Lee K. Metab Eng 2006; 8:30-45).

O=C(O)Cc1ccccc1 [phenylacetate]
Increase of lipolysis (5 mM PA): 1.2 fold | Decrease of citrate transport out of the mitochondria (5 mM phenylacetate): 40% | Decrease of pyruvate carboxylase flux (5 mM phenylacetate): 23% | Increase of lipolysis (10 mM PA): 1.4 fold | Calculated CO2 output lower (10 mM phenylacetate): 23% | Decrease of PDC flux (10 mM phenylacetate): 27% | Decrease of citrate transport out of the mitochondria (10 mM phenylacetate): 46% | Decrease of pyruvate carboxylase flux (10 mM phenylacetate): 33% | Flux RXN 1 Glycolysis: Glucose + ATP = Glucose 6-P + ADP (PA 5 mM, day 12 post-induction): 367.0 ± 17.6 mmol/g-DNA/2 days | Flux RXN 2 Glycolysis: Glucose 6-P = Fructose 6-P (PA 5 mM, day 12 post-induction): 359.9 ± 23.3 mmol/g-DNA/2 days | Flux RXN 3 Glycolysis: Fructose 6-P + ATP = Glyceraldehyde 3-P + Glycerone-P + ADP (PA 5 mM, day 12 post-induction): 364.7 ± 19.3 mmol/g-DNA/2 days | Flux RXN 4 Glycolysis: Glycerone-P = Glyceraldehyde 3-P (PA 5 mM, day 12 post-induction): 342.7 ± 18.4 mmol/g-DNA/2 days | Flux RXN 5 Glycolysis: Glyceraldehyde 3-P + NAD+ + ADP + Pi = P-Enolpyruvate + ATP + H2O (PA 5 mM, day 12 post-induction): 709.8 ± 35.8 mmol/g-DNA/2 days | Flux RXN 6 Glycolysis: P-Enolpyruvate + ADP + H+ = Pyruvate + ATP (PA 5 mM, day 12 post-induction): 784.6 ± 35.5 mmol/g-DNA/2 days | Flux RXN 7 Glycolysis: Pyruvate + NADH + H+ = Lactate + NAD+ (PA 5 mM, day 12 post-induction): 410.4 ± 19.1 mmol/g-DNA/2 days | Flux RXN 8 Pentose phosphate pathway: Glucose 6-P + 2 NADP+ + H2O = Ribulose 5-P + CO2 + 2 NADPH + 2 H+ (PA 5 mM, day 12 post-induction): 7.1 ± 7.8 mmol/g-DNA/2 days | Flux RXN 9 Pentose phosphate pathway: 3 Ribulose 5-P = 2 Fructose 6-P + Glyceraldehyde 3-P (PA 5 mM, day 12 post-induction): 2.4 ± 2.6 mmol/g-DNA/2 days | Flux RXN 10 TCA cycle (mitochondria) (PDC) (PA 5 mM, day 12 post-induction): 312.7 ± 48.2 mmol/g-DNA/2 days | Flux RXN 11 TCA cycle (mitochondria) (PC) (PA 5 mM, day 12 post-induction): 141.4 ± 13.2 mmol/g-DNA/2 days | Flux RXN 12 TCA cycle (mitochondria) (PA 5 mM, day 12 post-induction): 200.9 ± 54.1 mmol/g-DNA/2 days | Flux RXN 13 TCA cycle (mitochondria) (PA 5 mM, day 12 post-induction): 237.8 ± 52.0 mmol/g-DNA/2 days | Flux RXN 14 TCA cycle (mitochondria) (PA 5 mM, day 12 post-induction): 251.0 ± 52.6 mmol/g-DNA/2 days | Flux RXN 15 TCA cycle (mitochondria) (PA 5 mM, day 12 post-induction): 251.2 ± 52.7 mmol/g-DNA/2 days | Flux RXN 16 TCA cycle (mitochondria) (PA 5 mM, day 12 post-induction): 171.3 ± 45.2 mmol/g-DNA/2 days | Flux RXN 17 TCA cycle: Citrate + CoA + ATP = Acetyl-CoA + Oxaloacetate + ADP + Pi (PA 5 mM, day 12 post-induction): 74.9 ± 9.0 mmol/g-DNA/2 days | Flux RXN 18 TCA cycle: Oxaloacetate + NADH + H+ = Malate + NAD+ (PA 5 mM, day 12 post-induction): 0.0 ± 0.0 mmol/g-DNA/2 days | Flux RXN 19 TCA cycle: Malate + NADP+ = Pyruvate + CO2 + NADPH (PA 5 mM, day 12 post-induction): 79.9 ± 9.7 mmol/g-DNA/2 days | Flux RXN 20 TCA cycle: Citrate + NADP+ = 2-Oxoglutarate + CO2 + NADPH + H+ (PA 5 mM, day 12 post-induction): 36.9 ± 7.3 mmol/g-DNA/2 days | Flux RXN 21 TCA cycle: Oxaloacetate + ATP = P-Enolpyruvate + CO2 + ADP (PA 5 mM, day 12 post-induction): 74.8 ± 9.0 mmol/g-DNA/2 days | Flux RXN 22 Oxidative phosphorylation (NADH + 0.5 O2) (PA 5 mM, day 12 post-induction): 527.6 ± 214.3 mmol/g-DNA/2 days | Flux RXN 23 Oxidative phosphorylation (FADH2 + 0.5 O2) (PA 5 mM, day 12 post-induction): 272.8 ± 53.3 mmol/g-DNA/2 days | Flux RXN 24 Palmitate biosynthesis (PA 5 mM, day 12 post-induction): 9.4 ± 1.1 mmol/g-DNA/2 days | Flux RXN 25 Tripalmitoylglycerol biosynthesis: Glycerone-P + 3 Palmitate to Tripalmitoylglycerol (PA 5 mM, day 12 post-induction): 22.0 ± 1.3 mmol/g-DNA/2 days | Flux RXN 26 Tripalmitoylglycerol + 3 H2O = Glycerol + 3 Palmitate (PA 5 mM, day 12 post-induction): 19.2 ± 1.4 mmol/g-DNA/2 days | Flux RXN 27 Tripalmitoylglycerol accumulation (PA 5 mM, day 12 post-induction): 2.8 ± 0.4 mmol/g-DNA/2 days | Flux RXN 28 Metabolism of ketone bodies (PA 5 mM, day 12 post-induction): 8.4 ± 0.3 mmol/g-DNA/2 days | Flux RXN 29 Metabolism of ketone bodies (PA 5 mM, day 12 post-induction): 0.0 ± 0.0 mmol/g-DNA/2 days | Flux RXN 30 Metabolism of ketone bodies (to 3-Hydroxybutyrate) (PA 5 mM, day 12 post-induction): 17.0 ± 0.6 mmol/g-DNA/2 days | Flux RXN 31 Amino acid metabolism: Pyruvate + NH4+ + NADPH = Alanine (PA 5 mM, day 12 post-induction): 0.0 ± 0.0 mmol/g-DNA/2 days | Flux RXN 32 Amino acid metabolism: Aspartate + NH4+ = Asparagine (PA 5 mM, day 12 post-induction): 2.3 ± 0.1 mmol/g-DNA/2 days | Flux RXN 33 Amino acid metabolism: Aspartate = Oxaloacetate + NH4+ + NADH (PA 5 mM, day 12 post-induction): 0.0 ± 0.0 mmol/g-DNA/2 days | Flux RXN 34 Amino acid metabolism: Cysteine = Pyruvate + NH4+ + NADH (PA 5 mM, day 12 post-induction): 0.0 ± 0.0 mmol/g-DNA/2 days | Flux RXN 35 Amino acid metabolism: Glutamate = 2-Oxoglutarate + NH4+ + NADH (PA 5 mM, day 12 post-induction): 0.0 ± 0.0 mmol/g-DNA/2 days | Flux RXN 36 Amino acid metabolism: Glutamate + NH4+ + ATP = Glutamine (PA 5 mM, day 12 post-induction): 5.3 ± 0.4 mmol/g-DNA/2 days | Flux RXN 37 Amino acid metabolism: Serine + THF = Glycine (PA 5 mM, day 12 post-induction): 5.8 ± 0.2 mmol/g-DNA/2 days | Flux RXN 38 Amino acid metabolism: Histidine + THF = Glutamate + NH4+ (PA 5 mM, day 12 post-induction): 2.7 ± 0.2 mmol/g-DNA/2 days | Flux RXN 39 Amino acid metabolism: Isoleucine + 2 CoA (PA 5 mM, day 12 post-induction): 8.1 ± 0.3 mmol/g-DNA/2 days | Flux RXN 40 Amino acid metabolism: Leucine + CoA + CO2 + ATP (PA 5 mM, day 12 post-induction): 8.6 ± 0.3 mmol/g-DNA/2 days | Flux RXN 41 Amino acid metabolism: Lysine = 2-Oxoadipate + 2 NH4+ + 3 NADH (PA 5 mM, day 12 post-induction): 0.0 ± 0.0 mmol/g-DNA/2 days | Flux RXN 42 Amino acid metabolism: 2-Oxoadipate + CoA (PA 5 mM, day 12 post-induction): 0.0 ± 0.0 mmol/g-DNA/2 days | Flux RXN 43 Amino acid metabolism: Methionine + Serine + ATP + CoA + THF (PA 5 mM, day 12 post-induction): 0.0 ± 0.0 mmol/g-DNA/2 days | Flux RXN 44 Amino acid metabolism: Phenylalanine + O2 + NADH = Tyrosine (PA 5 mM, day 12 post-induction): 0.0 ± 0.0 mmol/g-DNA/2 days | Flux RXN 45 Amino acid metabolism: Glutamate + ATP + 2 NADPH = Proline (PA 5 mM, day 12 post-induction): 0.0 ± 0.0 mmol/g-DNA/2 days | Flux RXN 46 Amino acid metabolism: Serine = Pyruvate + NH4+ (PA 5 mM, day 12 post-induction): 0.0 ± 0.0 mmol/g-DNA/2 days | Flux RXN 47 Amino acid metabolism: Threonine + CoA to Glycine (PA 5 mM, day 12 post-induction): 0.1 ± 0.1 mmol/g-DNA/2 days | Flux RXN 48 Amino acid metabolism: Tryptophan + 3 O2 + NADPH = 2-Oxoadipate + Alanine + CO2 + NH4+ (PA 5 mM, day 12 post-induction): 0.0 ± 0.0 mmol/g-DNA/2 days | Flux RXN 49 Amino acid metabolism: Tyrosine + 2 O2 (PA 5 mM, day 12 post-induction): 0.2 ± 0.1 mmol/g-DNA/2 days | Flux RXN 50 Amino acid metabolism: Valine + CoA (PA 5 mM, day 12 post-induction): 5.1 ± 0.4 mmol/g-DNA/2 days | Flux RXN 51 Plasma exchange: Palmitate (PA 5 mM, day 12 post-induction): 1.0 ± 0.1 mmol/g-DNA/2 days | Flux RXN 52 Plasma exchange: Acetoacetate (PA 5 mM, day 12 post-induction): 0.2 ± 0.2 mmol/g-DNA/2 days | Flux RXN 53 Plasma exchange: Alanine (PA 5 mM, day 12 post-induction): 0.0 ± 0.0 mmol/g-DNA/2 days | Flux RXN 54 Plasma exchange: Aspartate (PA 5 mM, day 12 post-induction): 2.3 ± 0.1 mmol/g-DNA/2 days | Flux RXN 55 Plasma exchange: Cysteine (PA 5 mM, day 12 post-induction): 0.0 ± 0.0 mmol/g-DNA/2 days | Flux RXN 56 Plasma exchange: Glutamate (PA 5 mM, day 12 post-induction): 2.6 ± 0.2 mmol/g-DNA/2 days | Flux RXN 57 Plasma exchange: Glycine (PA 5 mM, day 12 post-induction): 5.9 ± 0.2 mmol/g-DNA/2 days | Flux RXN 58 Plasma exchange: Serine (PA 5 mM, day 12 post-induction): 5.8 ± 0.2 mmol/g-DNA/2 days | Flux RXN 59 Plasma exchange: Tyrosine (PA 5 mM, day 12 post-induction): 0.1 ± 0.1 mmol/g-DNA/2 days | Flux RXN 60 Plasma exchange: O2 (calculated oxygen uptake rate) (PA 5 mM, day 12 post-induction): 400.5 ± 134.0 mmol/g-DNA/2 days | Flux RXN 61 Plasma exchange: CO2 (PA 5 mM, day 12 post-induction): 805.5 ± 145.9 mmol/g-DNA/2 days | Flux RXN 62 Plasma exchange: NH4+ (PA 5 mM, day 12 post-induction): 17.0 ± 1.0 mmol/g-DNA/2 days | Flux RXN 63 Mitochondrial exchange: Pyruvate (PA 5 mM, day 12 post-induction): 454.0 ± 54.4 mmol/g-DNA/2 days | Flux RXN 64 Mitochondrial exchange: Malate in, Citrate out (PA 5 mM, day 12 post-induction): 111.7 ± 15.8 mmol/g-DNA/2 days
